Results as given in patent US6716878B1, “Antimicrobial agents” (Vernalis (Oxford) Limited, priority 1999, dated 2004).
≈ marks a conversion by molar mass, not a printed value.

What was measured:
E. coli strain DH5α = test: Minimal inhibitory concentration (MIC) against E. coli, two fold serial dilutions in 2xYT broth; type: cell-based; conditions: Escherichia coli; E. coli strain DH5α; 2xYT broth, 37° C., 18 hours; lowest drug concentration that inhibited visible growth; read-out: MIC (E. coli)
Procedure: (§1) Where MIC values are quoted for the compounds of the examples, those results were obtained by the method described in the Biological Example.
(§2) Minimal inhibitory concentrations (MIC) of inhibitors against E. coli strain DH5α (Genotype; F-φ80d/acZΔM 15Δ(lacZYA-argF)U 169 deoR recA1 endA1 hsdR17(rk^−, mk^+)phoA supE44λ^−thi-1 gyrA96 re/A1) obtained from GibcoBRL Life Technologies, or Staphylococcus capitis (American Type Culture Collection number 35661) were determined as follows. Stock solutions of each test compound were prepared by dissolution of the compound in dimethylsulfoxide at 10 mM. For the determination of the minimal inhibitory concentration, two fold serial dilutions were prepared in 2×YT broth (typtone 16 g/l, yeast extract 10 g/l, sodium chloride 5 g/l obtained from BIO 101 Inc, 1070 Joshua Way, Vista, Calif. 92083, USA) to yield 0.05 ml compound-containing medium per well. Inocula were prepared from cultures grown overnight in 2×YT broth at 37° C. Cell densities were adjusted to absorbance at 660 nm (a660)=0.1; the optical density-standardised preparations were diluted 1:1000 in 2×YT broth; and each well inoculated with 0.05 ml of the diluted bacteria. Microtiter plates were incubated at 37° C. for 18 hours in a humidified incubator. The MIC (μM) was recorded as the lowest drug concentration that inhibited visible growth.

[1] = system: Staphylococcus capitis (American Type Culture Collection number 35661); test: Minimal inhibitory concentration (MIC) against Staphylococcus capitis, two fold serial dilutions in 2xYT broth; type: cell-based; conditions: ATCC35661, Staphylococcus capitis ATCC 35661, 37° C., 18 hours, lowest drug concentration that inhibited visible growth, read-out: MIC (S. capitis)
Procedure: as §1, §2

| MIC (E. coli strain DH5α) | MIC [1] | Structure (SMILES) |
| --- | --- | --- |
| 6.25 µM (≈ 2.88 µg/mL) | 6.25 µM (≈ 2.88 µg/mL) | CCCC[C@H](CN(O)C=O)C(=O)N[C@H](C(=O)c1ccc(N2CCN(C)CC2)cc1)C(C)(C)C [Example 27, 2(R)-[(N-Formyl-N-hydroxyamino)-methyl]-hexanoic Acid-(2′,2′-dimethyl-1′(S)-[4-(4-methylpiperazin-1-yl)benzoyl]-propyl)amide] |
| 12.5 µM (≈ 6.56 µg/mL) | 1.6 µM (≈ 0.839 µg/mL) | CCCC[C@H](CN(O)C=O)C(=O)N[C@H](C(=O)c1ccc(N2CCN(c3ncccn3)CC2)cc1)C(C)(C)C [Example 28, 2(R)-[(N-Formyl-N-hydroxyamino)-methyl]-hexanoic Acid-(2′,2′-dimethyl-1′(S)-[4-(4-pyrimidin-2-yl-piperazin-1-yl)-benzoyl]-propyl)amide] |
| 50 µM (≈ 26.4 µg/mL) | 6.25 µM (≈ 3.3 µg/mL) | CCCC[C@H](CN(O)C=O)C(=O)N[C@H](C(=O)c1ccc(N2CCN(C3=NCCCN3)CC2)cc1)C(C)(C)C [Example 29, 2(R)-[(N-Formyl-N-hydroxyamino)-methyl]-hexanoic Acid-(2′,2′-dimethyl-1′(S)-{4-[4-(1,4,5,6-tetrahydropyrimidin-2-yl)-piperazin-1-yl]-benzoyl}-propyl)amide] |
| 100 µM (≈ 46.2 µg/mL) | 3.1 µM (≈ 1.43 µg/mL) | CCCC[C@H](CN(O)C=O)C(=O)N[C@H](C(=O)c1ccc(N(CCC)CCC)cc1)C(C)(C)C [Example 30, 2(R)-[(N-Formyl-N-hydroxyamino)-methyl]-hexanoic Acid-(1′(S)-(4-dipropylaminobenzoyl)-2′,2′-dimethylpropyl)amide] |
| 12.5 µM (≈ 5.24 µg/mL) | 3.1 µM (≈ 1.3 µg/mL) | CCCC[C@H](CN(O)C=O)C(=O)N[C@H](C(=O)c1ccc(NCCC)cc1)C(C)(C)C [Example 31, 2(R)-[(N-Formyl-N-hydroxyamino)-methyl]-hexanoic Acid-(2′,2′-dimethyl-1′(S)-(4-propylaminobenzoyl)-propyl)amide] |
